Values after ≈ are worked out from the molar mass of the structure shown.

The text below walks through data of US7666864B2, “Bicyclic nitroimidazole-substituted phenyl oxazolidinones” (priority 2008, dated 2010).

This experiment has as its system M. tuberculosis (PA-resistant). The experiment is described as follows: microbe, parasite or virus in culture. Type of experiment: cell-based, Mycobacterium tuberculosis. The note with it: for MIC: Mycobacterium tuberculosis.

Consider `CC(=O)NC[C@H]1CN(c2ccc(-c3cnc(O[C@@H]4COc5nc([N+](=O)[O-])cn5C4)nc3)c(F)c2)C(=O)O1` [Example 8, (S,S)—N-(3-{3-Fluoro-4-[2-(2-nitro-6,7-dihydro-5H-imidazo[2,1-b][1,3]oxazin-6-yloxy)-pyrimidin-5-yl]-phenyl}-2-oxo-oxazolidin-5-ylmethyl)-acetamide], for which the “MIC against PA-824 resistant strain of Mycobacterium tuberculosis H37Rv” value stood at 0.5 micg/mL and the MIC was found to be 0.5 µg/mL (≈ 0.974 µM).

Take `O=[N+]([O-])c1cn2c(n1)OC[C@@H](OCc1ccc(OC(F)(F)F)cc1)C2` [PA-824, reference compound]: the “activity against PA-824 resistant strain (in words)” value was “loses its activity” and the MIC is > 32 µg/mL.

Molecule `CC(=O)NC[C@H]1CN(c2ccc(N3CCOCC3)c(F)c2)C(=O)O1` [Linezolid, linezolid, reference compound] had an MIC of 0.5 µg/mL (≈ 1.48 µM).

In the case of `CC(=O)NC[C@H]1CN(c2ccc(-c3ccc(CO[C@@H]4COc5nc([N+](=O)[O-])cn5C4)cc3)c(F)c2)C(=O)O1` [Example 31, (S,S)—N-{3-[2-Fluoro-4′-(2-nitro-6,7-dihydro-5H-imidazo[2,1-b][1,3]oxazin-6-yloxymethyl)-biphenyl-4-yl]-2-oxo-oxazolidin-5-ylmethyl}-acetamide], the “MIC against PA-824 resistant strain of Mycobacterium tuberculosis H37Rv” value is 1 micg/mL and the MIC is 1 µg/mL (≈ 1.9 µM).
